Source: doi:10.1101/2024.03.17.584721v1 (bioRxiv, 2024)

Legend:
[1] = In vivo biodistribution of LNP-encapsulated PepTACs; set-up: species or system SKH-1 hairless mice; conditions: Cy5.5-labeled, 5 mg/kg IV, confocal imaging of liver sections
HeLa cells = test: Confocal imaging of subcellular localization; assay type: cell-based, human; conditions: free fluorescein-labelled peptide without LNP, 8 hours, live cell confocal
[2] = Encapsulation efficiency of the LNPs; assay type: physicochemical; conditions: optimized LNP formulation, ^CRPepTAC or peptide ligand alone; Figure 4B

LNP Encapsulation Efficiency, % [2] | Substance | PepTAC signal in liver sections after 24 hours [1] | uptake / subcellular localization (HeLa cells)
 | IYP^OHAL-Ahx-KDVLSEKEKKLEEYKQKLARV [^CRPepTAC] | no signal | no uptake or cellular association
15% | KDVLSEKEKKLEEYKQKLARV [CL] |  | 
